The term IC50 denotes the concentration at which inhibition is half-maximal. A low value points to inhibition by little substance.

T1 sequence (P00740 227-461 limits assumed): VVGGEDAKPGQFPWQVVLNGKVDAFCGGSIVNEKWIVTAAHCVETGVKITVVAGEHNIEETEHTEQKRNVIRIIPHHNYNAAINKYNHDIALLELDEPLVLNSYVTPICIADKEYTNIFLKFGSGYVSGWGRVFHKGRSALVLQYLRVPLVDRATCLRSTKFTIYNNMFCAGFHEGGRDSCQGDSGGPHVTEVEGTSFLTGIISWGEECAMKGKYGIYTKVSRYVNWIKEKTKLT
T1 sequence (P00740 47-191 partner limits assumed): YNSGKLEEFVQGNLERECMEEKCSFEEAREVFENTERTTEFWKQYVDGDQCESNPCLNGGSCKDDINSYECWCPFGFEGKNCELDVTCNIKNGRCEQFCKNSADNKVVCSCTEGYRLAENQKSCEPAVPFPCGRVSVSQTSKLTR

This assay concerns the target T1, factor IXa (Homo sapiens, UniProt P00740).
T1 construct: Factor IX is a proenzyme; purchased Calbiochem (Merck KGaA) 233290
As to the kind of experiment: Factor IXa enzyme assay (inhibition of enzymatic activity of FIXa, substrate PEFA 3107). Type of assay: biochemical. The following applies: 277 nM factor IXa, pH 7.4, 15 min preincubation at room temperature, read at 405 nm. As to the method:
The prepared substances from the examples were tested for inhibition of the enzymatic activity of FIXa using the substrate PEFA 3107 (Pentapharm/Loxo; via S. Black GmbH, Baumstrasse 41, 47198 Duisburg, Germany; Pr. No. 095-20) and factor IXa (Calbiochem, Merck KGaA markets Calbiochem in Germany, Life Science & Analytics, 64293 Darmstadt; Pr. No. 233290). In this method, 28 μl of test buffer (50 mM α,α,α-tris(hydroxymethyl)methylamine (TRIS), 100 mM NaCl, 5 mM CaCl2, 0.1% bovine serum albumin, pH 7.4) and 10 μl of factor IXa (277 nM final concentration in the test batch) were added to 2 μl of 10 mM dimethyl sulfoxide solution of the respective test substance, and the mixture was incubated for 15 minutes at room temperature in a 96 half-well microtiter plate. The enzyme reaction was started by addition of 10 μl of substrate (1 mM stock solution in water). The time course of the reaction was monitored at 405 nm in a microtiter plate reader (SpectraMax plus 384; Molecular Devices) for 15 minutes. The IC50 was calculated from the averaged values (duplicate determination) of a dilution series of the test substance with the aid of the software Grafit 4 (Erithacus Software, UK). The inhibition constants (Ki) were calculated according to the Cheng Prusoff equation Ki=IC50/(1+(S/Km), where S=concentration of the test substrate in the test and Km=Michaelis-Menten constant.
Consider `Cc1ccc(NC(=O)[C@H](O)[C@@H](O)C(=O)Nc2ccc3c(N)nccc3c2)cc1` [Example 1, (2R,3R)—N-(1-Aminoisoquinolin-6-yl)-2,3-dihydroxy-N′-p-tolyltartaramide; compound with trifluoroacetic acid], for which the IC50 was 0.22 µM.
To `Cc1ccc(NC(=O)[C@H](O)[C@@H](O)C(=O)Nc2ccc(C(=N)N)cc2)cc1` [Example 5, (2R,3R)—N-(4-Carbamimidoylphenyl)-2,3-dihydroxy-N′-p-tolylsuccinamide; compound with trifluoroacetic acid] belongs 0.17 µM; to `Nc1nc2ccc(NC(=O)[C@H](O)[C@@H](O)C(=O)Nc3ccc(Oc4ccccc4)cc3)cc2[nH]1` [Example 12, (2R,3R)—N-(2-amino-3H-benzimidazol-5-yl)-2,3-dihydroxy-N′-(4-phenoxyphenyl)-tartaramide], 0.37 µM.
